Literature values as cited in patent US6475978B1, “Method of making water-softening and detergent compositions” (Unilever Home & Personal Care USA a division of Conopco, …, priority 1999, dated 2002).
Like-named read-outs stand apart in the source and are kept apart here.

Conditions: at 20° C.
[1] = materials with solubility of less than 50 g per 100 g water

| Water Solubility (materials with solubility of at least 50 g per 100 g water) | Compound | Water Solubility [1] |
| --- | --- | --- |
|  | O=BO[O-].[Na+] [Sodium perborate anhydrous] | 3.7 g/100 g |
|  | O=P(O)(O)OP(=O)(O)OP(=O)(O)O [Sodium tripolyphosphate anhydrous] | 15 g/100 g |
| >100 g/100 g | NC(N)=O [Urea] |  |
